Data taken from PubChem BioAssay (NCI).
Values joined by “and” are separate entries in the source; they are usually repeats but may differ in a detail not shown here. Equal entries are not always repeated.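 Method: 48-hour compound exposure of cells in 96-well plates, five concentrations, linear interpolation of endpoints. GI50 marks 50% less growth. The concentration for full growth arrest is given as TGI.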 *1 amine or outer side, *2 acyl side, *3 side chain or, on linkers, in order; H or OH if unused. Where a SMILES comes first, the peptide text is derived from it. Bridges are numbered along the chain shown (N, C = ends). Roman numbers before positions name the chains, in order. [ ]: non-standard residue; d: D form. Actinocin(9to1) = Cc1c2oc3c(C)ccc(C(=O)[*:1])c3nc-2c(C(=O)[*:2])c(N)c1=O; NMeT = CN[CH](C(=O)O)[CH](C)O; Sar = CNCC(=O)O

How the values were obtained:
Test in all cases: inhibition of tumour cell growth, NCI panel, 48 h
MDA-MB-231 breast = test system: MDA-MB-231 breast
IGROV1 ovarian = test system: IGROV1 ovarian
A549 NSCLC = test system: A549 NSCLC
LOX IMVI melanoma = test system: LOX IMVI melanoma
MOLT-4 leukemia = test system: MOLT-4 leukemia
CAKI-1 renal = test system: CAKI-1 renal
MCF7 breast = test system: MCF7 breast
HL-60(TB) leukemia = test system: HL-60(TB) leukemia
EKVX NSCLC = test system: EKVX NSCLC
786-0 renal = test system: 786-0 renal

Compound	GI50 (MDA-MB-231 breast)	TGI (MDA-MB-231 breast) [µM]	GI50 (IGROV1 ovarian) [µM]	TGI (IGROV1 ovarian) [µM]	GI50 (A549 NSCLC)	TGI (A549 NSCLC) [µM]	GI50 (LOX IMVI melanoma) [µM]	TGI (LOX IMVI melanoma)	GI50 (MOLT-4 leukemia) [µM]	TGI (MOLT-4 leukemia)	GI50 (CAKI-1 renal)	TGI (CAKI-1 renal)	GI50 (MCF7 breast) [µM]	TGI (MCF7 breast) [µM]	GI50 (HL-60(TB) leukemia)	TGI (HL-60(TB) leukemia)	GI50 (EKVX NSCLC)	TGI (EKVX NSCLC)	GI50 (786-0 renal)	TGI (786-0 renal) [µM]
CNC(=O)c1ccc(N2C(=S)N(c3ccc(C#N)c(C(F)(F)F)c3)C(=O)C2(C)C)cc1F	> 38.6 µM	> 60.6	40.3	> 100	33.6 µM	> 95.4	36.5	> 62.2 µM	33.1	> 100 µM	31 µM	> 52 µM	33.9	> 82.3	33.7 µM	> 100 µM	25 µM	> 80.5 µM	> 44.2 µM	> 73.5
C[C@]12CC[C@@H]3c4cc(-c5ccc(F)cc5)c(O)cc4CC[C@H]3[C@@H]1CC[C@@H]2O	7.86 µM	23.9	6	20.4	6.17 µM	22.9	9.88	22.1 µM	4.88	18.3 µM	6.47 µM	21.5 µM	5.21	18.6	8.17 µM	28.5 µM	6.32 µM	20.3 µM	11.9 µM	27.7
Cc1ccc(Cc2cnc(NC(=O)/C=C/c3cccc(C)c3)s2)cc1	0.397 µM	5.08	0.334	15.5	0.29 µM	> 67.7	0.124	7.4 µM	0.261	> 100 µM	0.0663 µM	11 µM	0.103	> 100	0.0933 µM	0.559 µM	0.403 µM	> 100 µM	0.389 µM	4.04
Cc1cc(=O)oc2c(C)c(O)ccc12	–	> 100	–	> 100	–	> 100	–	> 100 µM	–	> 100 µM	–	> 100 µM	–	> 100	–	> 100 µM	–	> 100 µM	–	> 100
COc1cc2ncn(-c3cc(O[C@@H](C)c4ccccc4Cl)c(C(N)=O)s3)c2cc1OC	1.19 µM	> 25	3.69	> 25	1.45 µM	> 25	1.05	> 25 µM	0.926	> 18.4 µM	6.8 µM	> 25 µM	0.111	> 25	0.728 µM	2.86 µM	6.66 µM	> 25 µM	4.43 µM	> 25
C[C@@H](O)[C@H](NC(=O)N[C@@H](CC(N)=O)c1nc([C@@H](N)CO)no1)C(=O)O	> 100 µM	> 100	> 100	> 100	> 100 µM	> 100	> 100	> 100 µM	> 100	> 100 µM	> 100 µM	> 100 µM	> 100	> 100	> 100 µM	> 100 µM	> 100 µM	> 100 µM	> 100 µM	> 100
CCN(Cc1ccccc1)c1ccc(CO)c(Cl)c1	21.2 µM	> 100	0.112	0.934	2.18 µM	25.4	23.8	> 100 µM	29.9	> 87.2 µM	0.845 µM	21.4 µM	0.338	25.9	11.1 µM	46.7 µM	20.1 µM	74.5 µM	12 µM	39.3
CCC(=O)Nc1ccccc1C#C/C=C\C#Cc1ccccc1SC	7.92 µM	> 100	0.738	37.3	3.35 µM	> 100	5.47	> 100 µM	4.46	> 100 µM	5.18 µM	> 100 µM	3.39	29.7	1.46 µM	> 100 µM	7.11 µM	78.5 µM	33.6 µM	> 100
CC(=Nc1ccccc1)C1=C(O)C(Cc2ccc(O)cc2)NC1=O (stereo not given)	1.06 µM	> 100	0.232	–	0.126 µM	> 100	0.152	> 23.1 µM	0.371	> 100 µM	0.0635 µM	> 100 µM	0.0391	> 100	0.0376 µM	0.176 µM	0.16 µM	> 100 µM	0.505 µM	> 100
O=c1ccs[nH]1	–	28.6	–	66.5	–	41.4	–	18.4 µM	–	25 µM	–	22.2 µM	–	38.7	–	25 µM	–	27.2 µM	–	21.4
NC[C@H]1Nc2ccccc2[C@@H](O)C1O (stereo not given in full)	–	> 100	–	> 100	–	> 100	–	> 100 µM	–	> 100 µM	–	> 100 µM	–	> 100	–	> 100 µM	–	> 100 µM	–	> 100
COC(=O)CC[C@]1(C)O[C@H]2[C@H]([C@@H](C)CCCC(C)=O)OC(=O)[C@@H]2C[C@H]1O	> 100 µM	> 100	39.4	> 100	> 100 µM	> 100	> 100	> 100 µM	> 100	> 100 µM	32 µM	> 100 µM	> 100	> 100	> 100 µM	> 100 µM	> 100 µM	> 100 µM	> 100 µM	> 100
CC1=C(C(=O)Nc2ccc(Cl)c(Cl)c2)C(c2cccc(Cl)c2)NC(=O)N1 (stereo not given)	4.44 µM	11.7	7.51	21.6	17.3 µM	> 50	7.66	16.2 µM	4.99	> 23.3 µM	9.42 µM	19.9 µM	2.11	13.5	10.6 µM	> 35.7 µM	7.84 µM	16.2 µM	10.2 µM	28.3
COc1ccc(-c2cc(-c3ccc(Cl)cc3)nc(SCCCC(=O)NO)n2)cc1	1.22 µM	5.3	1.09	3.56	1.57 µM	7.95	0.153	1.32 µM	0.796	> 22 µM	0.284 µM	1.29 µM	1.81	7.43	1.65 µM	> 23 µM	1.21 µM	8.76 µM	0.594 µM	4.52
O=C1NC(=O)C(c2ccccc2Cl)=C1Nc1cc(Cl)c(O)c(Cl)c1	> 25 µM	> 25	> 25	> 25	> 25 µM	> 25	11.3	> 25 µM	16	> 25 µM	> 21.5 µM	> 25 µM	> 13.8	> 25	9.75 µM	> 25 µM	> 25 µM	> 25 µM	23.7 µM	> 25
COc1ccc(NC([Se])=NC23CC4CC(CC(C4)C2)C3)cc1	1.79 µM	3.91	1.64	7.7	2.38 µM	7.78	1.91	5.09 µM	0.611	5.12 µM	2.57 µM	10.2 µM	1.57	9.4	2.15 µM	5.91 µM	1.97 µM	4.74 µM	1.78 µM	4.22
O=C1O/C(=C\c2ccccc2)N(c2ccccc2)C1=O	–	> 100	–	> 100	–	> 100	–	> 100 µM	–	> 100 µM	–	> 100 µM	–	> 100	–	> 100 µM	–	> 100 µM	–	> 100
O=C1CC(=O)N(C(=O)c2nn(-c3ccc(Cl)cc3)cc2O)N1	1.84 µM	> 100	0.378	20.2	0.36 µM	> 100	1.15	> 100 µM	0.403	> 41.7 µM	0.639 µM	12.7 µM	1.24	> 100	0.751 µM	4.08 µM	0.845 µM	> 100 µM	3.76 µM	> 64.5
N#CC1=C(N)Oc2c(ccc3ccccc23)C1c1ccccc1 (stereo not given)	0.099 µM	7.5	0.0654	16.9	0.0845 µM	18.3	0.0575	3.25 µM	0.0574	16.8 µM	0.0283 µM	12.6 µM	0.0393	15.6	0.0295 µM	0.274 µM	0.315 µM	20.1 µM	0.0503 µM	13
COc1cc(-c2ccc(-c3ccc(C(=N)N)nc3)s2)cc(OC)c1OC	1.85 µM	4.2	2.63	6.2	2.06 µM	4.51	1.87	3.48 µM	2.53	6.9 µM	1.59 µM	3.19 µM	1.3	3.24	1.87 µM	4.21 µM	5.19 µM	18.2 µM	2.12 µM	3.93
CS(=O)(=O)CCNCc1ccc(-c2ccc3ncnc(Nc4ccc(OCc5ccccc5)c(Br)c4)c3c2)o1	4.85 µM	9.87	4.94	> 25	8.81 µM	> 25	4.36	8.69 µM	9.2	> 25 µM	2.43 µM	> 25 µM	7.07	24.6	6.81 µM	15.9 µM	0.526 µM	> 25 µM	4.69 µM	10.2
Cc1c2oc3c(C)ccc(C(=O)NC4C(=O)NC(C(C)C)C(=O)N5CCCC5C(=O)N(C)CC(=O)N(C)C(C(C)O)C(=O)OC4C)c3nc-2c(C(=O)NC2C(=O)NC(C(C)C)C(=O)N3CCCC3C(=O)N(C)CC(=O)N(C)C(C(C)O)C(=O)OC2C)c(N)c1=O (stereo not given) (I: TVP[Sar][NMeT] / II: TVP[Sar][NMeT]; ester I:1-I:C, II:1-II:C; linker I:N-II:N via Actinocin(9to1); configuration not given here)	3.53 µM and > 1 µM	> 69.9	–	> 41.7	2.86 µM and > 1 µM	> 100	–	7.84 µM and > 1 µM	–	11.1 µM and > 1 µM	3.64 µM and > 1 µM	13.1 µM and > 1 µM	–	> 1	3 µM and > 1 µM	28.1 µM and > 1 µM	2.56 µM and > 1 µM	25 µM and > 1 µM	1.25 µM and 0.61 µM	> 100
O=C(O)CCCSc1ccccc1	–	> 100	–	> 100	–	> 100	–	> 100 µM	–	> 100 µM	–	> 100 µM	–	> 100	–	> 100 µM	–	> 100 µM	–	> 100
O=C(O)c1ccc(Oc2nccc(-c3c(-c4ccc(F)cc4)ncn3C3CCNCC3)n2)cc1	> 25 µM	> 25	> 25	> 25	> 25 µM	> 25	> 25	> 25 µM	> 25	> 25 µM	> 25 µM	> 25 µM	> 25	> 25	> 25 µM	> 25 µM	> 25 µM	> 25 µM	> 25 µM	> 25
